Measured values: patent US8846704B2, “Thiopyrimidine-based compounds and uses thereof” (YM Biosciences Austraila Pty Ltd, priority 2007, dated 2014)

Assays:
[1] = target: T1, human JAK2 (Homo sapiens, UniProt O60674); assay: Alphascreen tyrosine kinase enzyme assay, JAK2 kinase domain; format: biochemical; details: read-out: JAK2 IC50_nM
T1 construct: The kinase domain of human JAK2 was amplified; GST (N); made in house; host or cells: Sf9 insect cells (baculovirus)
Experimental: (§1) For screening purposes, compounds (in 100% DMSO) were warmed at 37 degrees for at least 20 minutes before use. A […] stock was initially made in assay buffer, where the final concentration of DMSO was 0.3%. The stocks were then diluted in 384 well Optiplates (Packard) where the final concentration of the compound was […].
The kinase domain of human JAK2 was amplified from U937mRNA using the polymerase chain reaction with the following primers: […]
The JAK2 PCR products were cloned into the pDest20 destination vector (Gibco). The JAK2 plasmid was then transformed into competent DH10Bac cells (Gibco), and the recombinant baculovirus was prepared via Sf9 insect cell transfection.
(§2) Baculovirus preparations from each of the constructs were infected into either one or five liters of Sf9 cells (Invitrogen) grown in SF-900 medium (Invitrogen) to a cell density of approximately 1-2×10^6 cells/ml. Cells were infected with virus at a MOI of 0.8-3.0. Cells were harvested and lysed. Tyrosine kinase domains were purified by affinity chromatography on a glutathione-agarose column (Scientifix Pty. Ltd. catalog #: GSH-200).
(§3) Kinase assays were performed in 384 well Optiplates (Packard) using an Alphascreen Protein Tyrosine Kinase PY100 detection kit The compounds were pre-incubated with affinity purified PTK domain in the presence of phosphotyrosine assay buffer (10 mM HEPES, pH 7.5, 100 mM MgCl2, 25 mM NaCl, […] and 0.1% Tween 20) for 20 minutes. The compounds were then incubated with substrate in the presence of ATP. The substrate used was susbtrate-1 with the sequence biotin-EGPWLEEEEEAYGWMDF-NH2 [SEQ. ID. NO. 13] (final concentration […]). For HCK 80 μm ATP was used and incubated for 60 minutes. Alphascreen phosphotyrosine acceptor beads followed by streptavidin donor beads at a concentration of 1/100 in stop buffer were added to each well under subdued light and incubated for 2-3 hours., The Alphascreen plates were read on a Packard Fusion Alpha instrument.

[2] = target: T2, human JAK3 (Homo sapiens, UniProt P52333); assay: Alphascreen tyrosine kinase enzyme assay, JAK3 kinase domain; format: biochemical; details: read-out: JAK3 IC50_nM
T2 construct: The kinase domain of human JAK3 was amplified; GST (N); made in house; host or cells: Sf9 insect cells (baculovirus)
Experimental: as §1
The kinase domain of human JAK3 was amplified from U937mRNA using the polymerase chain reaction with the following primers: […]
The JAK3 PCR products were cloned into the pDest20 destination expression vector (Gibco). The JAK3 plasmid was then transformed into competent DH10Bac cells (Gibco), and the recombinant baculovirus was prepared via Sf9 insect cell transfection.
as §2, §3

[3] = tested on: BaF3 wild-type cells; assay: Cellular screening, BaF3 wild-type cells, Alamar Blue; format: cell-based; details: Mus musculus, 40 hr, read-out: BAF3wt IC50_nM
Experimental: For screening purposes, compounds were diluted in 96 well plates at a concentration of 20 μM. Plates were warmed at 37° C. for 30 minutes before the assay was performed.
The growth factor dependant myelomonocytic cell line BaF3 bearing the pTET-off plasmid (Clontech) was transfected with either pTELJAK2 or pTELJAK3, and the transfected cells were selected for growth-factor independent cell growth. The BaF3 wild-type cells were cultured in DMEM containing 10% FCS, 10% WEHI 3B conditioned medium. The BaF3 TELJAK cells ([…]) were cultured in DMEM 10% Tet-System Approved FBS (without WEHI 3B conditioned medium).
(§4) Cell suspensions were prepared by harvesting cells from culture (the cells used in this test were in late log phase growth with high viability.) Cells were diluted in the appropriate growth medium, as described above, to 1.1× final concentration (from 50,000 cell/mL to 200,000 cell/mL, depending on cell line).
(§5) Compounds to be tested were added (10 μL, 10× final concentration) to a flat bottomed 96-well plate. The cellular suspension (90 μL per well) was then added, and the plate incubated for 40 hr at 37° C., 5% CO2. Alamar Blue 10 μL per well was added and the plates returned to the incubator for a further 4-6 hours. The plates were then read at 544 nm.

[4] = tested on: CTLL2; assay: Cellular screening, CTLL2 cells, Alamar Blue; format: cell-based; details: Mus musculus, CTLL-2, read-out: CTLL2 IC50_nM
Experimental: as §4, §5

T1 sequence (O60674 849-1124 limits assumed): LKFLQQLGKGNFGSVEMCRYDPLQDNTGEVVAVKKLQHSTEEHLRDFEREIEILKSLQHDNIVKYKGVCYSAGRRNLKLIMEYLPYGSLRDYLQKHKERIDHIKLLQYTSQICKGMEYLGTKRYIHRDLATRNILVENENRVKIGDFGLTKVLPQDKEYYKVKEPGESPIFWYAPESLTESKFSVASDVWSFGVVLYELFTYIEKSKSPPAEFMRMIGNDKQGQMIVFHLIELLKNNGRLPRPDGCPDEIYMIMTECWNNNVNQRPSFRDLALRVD
T2 sequence (P52333 822-1111 limits assumed): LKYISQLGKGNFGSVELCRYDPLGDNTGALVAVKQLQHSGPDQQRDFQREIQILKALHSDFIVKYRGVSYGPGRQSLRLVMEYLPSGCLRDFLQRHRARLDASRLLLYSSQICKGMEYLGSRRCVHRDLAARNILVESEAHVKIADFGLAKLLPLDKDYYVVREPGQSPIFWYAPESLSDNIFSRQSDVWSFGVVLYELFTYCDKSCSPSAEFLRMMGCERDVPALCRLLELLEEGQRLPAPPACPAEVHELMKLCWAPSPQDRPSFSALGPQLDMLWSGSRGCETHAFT

SMILES | IC50 [1] [nM] | IC50 [2] [nM] | IC50 [3] [nM] | IC50 [4] [nM]
CC#CC(=O)Nc1cccc(Nc2nccc(SC)n2)c1 [Compound 8, N-(3-(4-(methylthio)pyrimidin-2-ylao)phenyl)but-2-ynamide] | > 1000 | < 100 | < 20000 | < 20000
C=CC(=O)Nc1ccc(Nc2nccc(SC)n2)cc1 [Compound 13, N-(4-(4-(methylthio)pyrimidin-2-ylao)phenyl)acrylamide] | > 1000 | < 100 | > 20000 | > 20000
C=CC(=O)Nc1cccc(Nc2nccc(Sc3ccccc3)n2)c1 [Compound 16, N-(3-(4-(phenylthio)pyrimidin-2-ylamino)phenyl)acrylamide] | > 1000 | < 100 | < 20000 | < 5000
CC#CC(=O)Nc1cccc(Sc2ccnc(Nc3cccc(N4CCOCC4)c3)n2)c1 [Compound 232, N-(3-(2-(3-morpholinophenylao)pyrimidin-4-ylthio)phenyl)but-2-ynamide] | > 1000 | < 100 |  | 
CC#CC(=O)Nc1ccc(Sc2ccnc(Nc3cccc(N4CCOCC4)c3)n2)cc1 [Compound 233, N-(4-(2-(3-morpholinophenylao)pyrimidin-4-ylthio)phenyl)but-2-ynamide] | > 1000 | < 100 | < 5000 | < 5000
C=CC(=O)Nc1ccc(Sc2nc(Nc3cccc(OC)c3)ncc2C)cc1 [Compound 235, N-(4-(2-(3-methoxyphenylao)-5-methylpyrimidin-4-ylthio)phenyl)acrylamide] | > 1000 | < 100 |  | 
C=CC(=O)Nc1ccc(Sc2nc(Nc3cccc(N4CCOCC4)c3)ncc2C)cc1 [Compound 237, N-(4-(5-methyl-2-(3-morpholinophenylao)pyrimidin-4-ylthio)phenyl)acrylamide] | > 1000 | < 100 | < 1000 | < 1000
C=CC(=O)Nc1ccc(Sc2ccnc(Nc3ccc(N4CCN(C)CC4)cc3)n2)cc1 [Compound 238, N-(4-(2-(4-(4-methylpiperazin-1-yl)phenylao)pyrimidin-4-ylthio)phenyl)acrylamide] | > 1000 | < 100 |  | 
COc1ccc(Nc2ncc(C)c(Sc3ccc(N)cc3)n2)cc1OC [Compound 240, 4-(4-aophenylthio)-N-(3,4-dimethoxyphenyl)-5-methylpyrimidin-2-ae] | > 1000 | < 500 | < 1000 | < 5000
C=CC(=O)Nc1ccc(Sc2nc(Nc3ccc(C)c(Br)c3)ncc2C)cc1 [Compound 242, N-(4-(2-(3-bromo-4-methylphenylao)-5-methylpyrimidin-4-ylthio)phenyl)acrylamide] | > 1000 | < 500 | > 20000 | > 20000
Cc1cnc(Nc2ccc(N3CCN(C)CC3)cc2)nc1Sc1ccc(N)cc1 [Compound 244, 4-(4-aophenylthio)-5-methyl-N-(4-(4-methylpiperazin-1-yl)phenyl)pyrimidin-2-ae] | < 500 | < 100 | < 5000 | < 5000
Cc1cnc(Nc2cccc(N3CCN(C)CC3)c2)nc1Sc1ccc(N)cc1 [Compound 245, 4-(4-aophenylthio)-5-methyl-N-(3-(4-methylpiperazin-1-yl)phenyl)pyrimidin-2-ae] | < 500 | < 500 | < 1000 | < 5000
C=CC(=O)Nc1ccc(Sc2nc(Nc3ccc(N4CCN(C)CC4)c(OC)c3)ncc2C)cc1 [Compound 249, N-(4-(2-(3-methoxy-4-(4-methylpiperazin-1-yl)phenylao)-5-methylpyrimidin-4-ylthio)phenyl)acrylamide] | > 1000 | < 100 | < 5000 | < 1000
Cc1cnc(Nc2ccc(N3CCOCC3)cc2)nc1Sc1ccc(N)cc1Cl [Compound 251, 4-(4-ao-2-chlorophenylthio)-5-methyl-N-(4-morpholinophenyl)pyrimidin-2-ae] | > 1000 | < 100 | > 20000 | > 20000
C=CC(=O)Nc1ccc(Sc2nc(Nc3ccc(N4CCC(CO)CC4)cc3)ncc2Br)cc1 [Compound 253, N-(4-(5-bromo-2-(4-(4-(hydroxymethyl)piperidin-1-yl)phenylao)pyrimidin-4-ylthio)phenyl)acrylamide] | > 1000 | < 100 | > 20000 | < 1000
C=CC(=O)Nc1ccc(Sc2nc(Nc3ccc(N4CCOCC4)nc3)ncc2C)cc1 [Compound 254, N-(4-(5-methyl-2-(6-morpholinopyridin-3-ylao)pyrimidin-4-ylthio)phenyl)acrylamide] | > 1000 | < 100 | < 5000 | < 1000
Cc1cc(Sc2nc(Nc3ccc(N4CCOCC4)cc3)ncc2C)ccc1N [Compound 255, 4-(4-ao-3-methylphenylthio)-5-methyl-N-(4-morpholinophenyl)pyrimidin-2-ae] | < 1000 | < 500 | < 20000 | > 20000
C=CC(=O)Nc1ccc(Sc2nc(Nc3ccc(N4CCOCC4)cc3)ncc2C)cc1C [Compound 259] | > 1000 | < 100 | < 20000 | < 1000
C=CC(=O)Nc1ccc(Sc2nc(Nc3ccc(N4CCOCC4)cc3)ncc2C)cc1CC [Compound 260, N-(2-ethyl-4-(5-methyl-2-(4-morpholinophenylao)pyrimidin-4-ylthio)phenyl)acrylamide] | > 1000 | < 100 | > 20000 | < 5000
Cc1cnc(Nc2ccc(N3CCOCC3)cc2)nc1Sc1ccc(N)nc1 [Compound 262, 4-(6-aopyridin-3-ylthio)-5-methyl-N-(4-morpholinophenyl)pyrimidin-2-ae] | < 500 | < 500 | > 20000 | > 20000
Nc1ccc(Sc2nc(Nc3ccc(N4CCOCC4)cc3)ncc2F)cc1 [Compound 263, 4-(4-aophenylthio)-5-fluoro-N-(4-morpholinophenyl)pyrimidin-2-ae] | > 1000 | < 500 | < 5000 | > 20000
Nc1ccc(Sc2nc(Nc3cccc(N4CCOCC4)c3)ncc2I)cc1 [Compound 264, 4-(4-aophenylthio)-5-iodo-N-(3-morpholinophenyl)pyrimidin-2-ae] | > 1000 | < 500 | < 5000 | < 5000
C=CC(=O)Nc1ccc(Sc2nc(Nc3cccc(N4CCOCC4)c3)ncc2I)cc1 [Compound 269, N-(4-(5-iodo-2-(3-morpholinophenylao)pyrimidin-4-ylthio)phenyl)acrylamide] | > 1000 | < 100 |  | 
C=CC(=O)Nc1ccc(Sc2ccnc(Nc3ccc(O)cc3)n2)cc1 [Compound 276, N-(4-(2-(4-hydroxyphenylao)pyrimidin-4-ylthio)phenyl)acrylamide] | > 1000 | < 100 | < 20000 | < 1000
C=CC(=O)Nc1ccc(Sc2ccnc(Nc3cccc(CO)c3)n2)cc1 [Compound 278, N-(4-(2-(3-(hydroxymethyl)phenylao)pyrimidin-4-ylthio)phenyl)acrylamide] | > 1000 | < 100 |  | 
